# Reference: patent US8410144B2, “Substituted indolo-pyridinone compounds” (ArQule, Inc., priority 2009, dated 2013)
# What was measured:
# NCI-H1299 = test: MTS assay, NCI-H1299 cells; format: cell-based; details: 72 hours; for inhibition at 10 µM: Homo sapiens, read-out: NCI-H1299, MTS cell kill % inhibition; for NCI-H1299, MTS cell kill % inhibition: 10 μM
# Procedure: (§1) Cells were maintained at 37° C., 5% CO2 in DMEM media supplemented with 1% fetal bovine serum, penicillin/streptomycin and fungizone (Invitrogen). Cells were seeded into 96-well tissue culture plates at 3000 per well and cultured at 37° C. for 18 hours. Test compounds were dissolved and diluted to 300× in DMSO then diluted 1:40 in DMEM. Cells were incubated with test compounds for 72 hours followed by incubation with tetrazolium compound (3-(4,5-dimethylthiazol-2-yl)-5-(3-carboxymethoxyphenyl)-2-(4-sulfophenyl)-2H-tetrazolium, inner salt; MTS) and the electron coupling reagent, phenazine methosulfate (PMS) for 4 hours. […] The ability of compounds to inhibit cell growth in this assay is correlated with the reduction of dehydrogenase enzyme activity found in metabolically active cells. The measurement of the absorbance of the formazan was assessed using an ENVISION™ (Perkin Elmer) microplate reader at 492 nm. The calculated IC50 value is the concentration of the test compound that causes a 50% decrease in the absorbance.
# IGF-1R = IGF-1R (Homo sapiens, UniProt P08069); test: IGFR1 activity assay (ELISA); format: biochemical; details: for inhibition at 30 µM: read-out: IGF-1R, PCT INH (30 μM), ELISA
# Procedure: The disclosed compounds were assayed for their ability to inhibit insulin-like growth factor receptor-1 (IGFR1). Nunc Maxisorb plates were coated with streptavidin by overnight incubation with 100 μL per well of 1 μg/ml Streptavidin in DPBS. Prior to the start of the experiment, the plates were washed with TBST (3×200 μL) and blocked for at least 1 hour by adding 150 μL of 5% BSA/TBST. The plates were washed with TBST (3×200 μL/well) and left to dry immediately before the capture step.
# The disclosed test articles and controls (Staurosporine) were prepared using the following assay buffer at 3× desired final concentration (50 mM Tris-HCl, 0.02 mg/ml BSA, 10 mM MgCl2, 0.1 mM Na3VO4, 1 mM EGTA, 12.5 μM ATP, 0.01% NP-40, 1 mM DTT in 10% glycerol/water). 20 μL of the test compounds (or control), 20 μL IGF1R (0.33 ng/μL final concentration), and 20 μL of Pyk-2 (0.05 ng/μL final concentration) were rapidly added to the reaction plate. The plate was incubated at room temperature for one hour.
# 50 μL was transferred from the reaction plate to the streptavidin coated plate. The capture plate was incubated at room temperature for 30 minutes, then washed with TBST three times. 100 μL/well of Cell Signaling anti-phospho tyrosine was added to the capture plate at a dilution of 1:3000 in 2% BSA/TBST. The plate was incubated for one hour at room temperature then washed 6× with TBST. 100 μL/well of alkaline phosphatase tagged goat anti mouse antibody was added to the capture plate at a dilution of 1:4000 in 2% BSA/TBST. The plate was incubated for one hour at room temperature then washed with TBST six times.
# The fluorescent readout is initiated by the addition of 100 μL/well of Attophos reagent (6 mg/10 mL). The reading is done on the Perkin Elmer Envision system.
# KATO III = test: MTS assay, KATO III cells; format: cell-based; details: 72 hours; for inhibition at 10 µM: Homo sapiens, read-out: KATO III, MTS cell kill % inhibition; for KATO III, MTS cell kill % inhibition: 10 μM
# Procedure: as §1
# DLD-1 = test: MTS assay, DLD-1 cells; format: cell-based; details: 72 hours; for inhibition at 10 µM: Homo sapiens, read-out: DLD-1, MTS cell kill % inhibition; for DLD-1, MTS cell kill % inhibition: 10 μM
# Procedure: as §1
# MDA-MB-231 = test: MTS assay, MDA-MB-231 cells; format: cell-based; details: 72 hours; for inhibition at 10 µM: Homo sapiens, read-out: MDA-MB-231, MTS cell kill % inhibition; for MDA-MB-231, MTS cell kill % inhibition: 10 μM
# Procedure: as §1
# IGF-1R, sequence (P08069 31-1367): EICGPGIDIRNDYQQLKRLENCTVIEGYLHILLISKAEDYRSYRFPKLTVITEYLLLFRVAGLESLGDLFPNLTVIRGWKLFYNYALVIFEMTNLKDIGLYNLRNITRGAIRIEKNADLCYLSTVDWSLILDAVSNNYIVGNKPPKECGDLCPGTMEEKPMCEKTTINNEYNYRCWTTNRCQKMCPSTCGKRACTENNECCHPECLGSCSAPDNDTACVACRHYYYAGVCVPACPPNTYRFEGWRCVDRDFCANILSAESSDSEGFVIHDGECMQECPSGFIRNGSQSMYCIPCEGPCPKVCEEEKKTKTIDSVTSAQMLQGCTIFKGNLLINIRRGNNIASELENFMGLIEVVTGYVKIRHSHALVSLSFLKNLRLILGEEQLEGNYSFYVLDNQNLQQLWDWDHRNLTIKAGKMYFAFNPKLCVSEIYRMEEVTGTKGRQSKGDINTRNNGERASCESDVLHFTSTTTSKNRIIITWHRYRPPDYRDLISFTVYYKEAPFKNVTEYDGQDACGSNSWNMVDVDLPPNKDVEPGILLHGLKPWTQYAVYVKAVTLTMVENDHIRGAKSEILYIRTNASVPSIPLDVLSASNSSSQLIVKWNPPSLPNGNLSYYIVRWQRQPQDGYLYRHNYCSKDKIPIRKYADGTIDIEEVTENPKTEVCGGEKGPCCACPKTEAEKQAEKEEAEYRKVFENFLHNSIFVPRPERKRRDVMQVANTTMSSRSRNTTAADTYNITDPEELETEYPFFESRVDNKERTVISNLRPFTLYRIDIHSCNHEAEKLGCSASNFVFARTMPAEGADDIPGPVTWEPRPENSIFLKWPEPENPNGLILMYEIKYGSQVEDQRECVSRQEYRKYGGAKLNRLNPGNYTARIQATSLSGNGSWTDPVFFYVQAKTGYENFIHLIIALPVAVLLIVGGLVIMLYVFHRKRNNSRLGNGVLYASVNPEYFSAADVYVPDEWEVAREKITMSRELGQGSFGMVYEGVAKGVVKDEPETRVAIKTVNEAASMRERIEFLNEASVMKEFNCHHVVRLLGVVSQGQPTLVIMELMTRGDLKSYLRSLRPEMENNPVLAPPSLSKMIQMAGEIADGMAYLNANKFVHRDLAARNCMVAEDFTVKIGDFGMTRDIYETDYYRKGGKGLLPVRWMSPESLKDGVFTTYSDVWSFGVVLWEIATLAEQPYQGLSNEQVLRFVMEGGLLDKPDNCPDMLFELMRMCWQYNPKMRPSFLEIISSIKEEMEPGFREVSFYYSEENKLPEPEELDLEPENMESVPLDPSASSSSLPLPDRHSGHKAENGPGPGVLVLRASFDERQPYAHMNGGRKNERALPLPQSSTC
Compound,inhibition at 10 µM (NCI-H1299),inhibition at 30 µM (IGF-1R),inhibition at 10 µM (KATO III),inhibition at 10 µM (DLD-1),inhibition at 10 µM (MDA-MB-231),"NCI-H1299, MTS cell kill % inhibition (NCI-H1299)","IGF-1R, PCT INH (30 μM), ELISA (IGF-1R)","KATO III, MTS cell kill % inhibition (KATO III)","DLD-1, MTS cell kill % inhibition (DLD-1)","MDA-MB-231, MTS cell kill % inhibition (MDA-MB-231)"
"CN(C)CCCN(C)C(=O)c1ccc2[nH]c(-c3ccc[nH]c3=O)c(-c3ccc(-c4ccccc4)cc3)c2c1 [Compound 46, 3-biphenyl-4-yl-N-[3-(dimethylamino)propyl]-N-methyl-2-(2-oxo-1,2-dihydropyridin-3-yl)-1H-indole-5-carboxamide]",80 to 100%,80 to 100%,80 to 100%,80 to 100%,80 to 100%,,,,,
"COc1cccc(CCNC(=O)c2ccc3[nH]c(-c4ccc[nH]c4=O)c(-c4ccccc4)c3c2)c1OC [Compound 19, N-[2-(2,3-dimethoxyphenyl)ethyl]-2-(2-oxo-1,2-dihydropyridin-3-yl)-3-phenyl-1H-indole-5-carboxamide]",80 to 100%,80 to 100%,80 to 100%,80 to 100%,80 to 100%,,,,,
"O=C(NCc1ccc(F)cc1F)c1ccc2[nH]c(-c3ccc[nH]c3=O)c(-c3ccc(-c4ccccc4)cc3)c2c1 [Compound 34, 3-biphenyl-4-yl-N-(2,4-difluorobenzyl)-2-(2-oxo-1,2-dihydropyridin-3-yl)-1H-indole-5-carboxamide]",50 to 79%,,80 to 100%,50 to 79%,50 to 79%,,,,,
"O=C(NCCCN1CCOCC1)c1ccc2[nH]c(-c3ccc[nH]c3=O)c(-c3csc4ccccc34)c2c1 [Compound 74, 3-(1-benzothien3-yl)-N-(3-morpholin-4-ylpropyl)-2-(2-oxo-1,2-dihydropyridin-3-yl)-1H-indole-5-carboxamide]",50 to 79%,80 to 100%,80 to 100%,50 to 79%,50 to 79%,,,,,
"O=C(c1ccc2[nH]c(-c3ccc[nH]c3=O)c(-c3ccc(-c4ccccc4)cc3)c2c1)N1CCN(Cc2ccccn2)CC1 [Compound 41, 3-(3-biphenyl-4-yl-5-{[4-(pyridin-2-ylmethyl)piperazin-1-yl]carbonyl}-1H-indol-2-yl)pyridin-2(1H)-one]",80 to 100%,50 to 79%,80 to 100%,80 to 100%,50 to 79%,,,,,
"COc1ccc(CNC(=O)c2ccc3[nH]c(-c4ccc[nH]c4=O)c(-c4ccccc4)c3c2)cc1OC [Compound 32, N-(3,4-dimethoxybenzyl)-2-(2-oxo-1,2-dihydropyridin-3-yl)-3-phenyl-1H-indole-5-carboxamide]",80 to 100%,80 to 100%,80 to 100%,50 to 79%,< 50%,,,,,
"O=C(NCCCN1CCOCC1)c1ccc2[nH]c(-c3ccc[nH]c3=O)c(-c3ccc(F)cc3)c2c1 [Compound 68, 3-(4-fluorophenyl)-N-(3-morpholin-4-ylpropyl)-2-(2-oxo-1,2-dihydropyridin-3-yl)-1H-indole-5-carboxamide]",50 to 79%,80 to 100%,< 50%,< 50%,< 50%,,,,,
3-[3-biphenyl-4-yl-5-({[3- (dimethylamino)propyl](methyl) amino}methyl)-1H-indol-2- yl]pyridin-2(1H)-one [Compound 53],,,,,,A (A = 80-100% inhibition),C (C = <50% inhibition),A (A = 80-100% inhibition),A (A = 80-100% inhibition),A (A = 80-100% inhibition)
"COc1cc2c(cc1OC)CN(C(=O)c1ccc3[nH]c(-c4ccc[nH]c4=O)c(-c4ccccc4)c3c1)CC2 [Compound 21, 3-{5-[(6,7-dimethoxy-3,4-dihydroisoquinolin-2(1H)-yl)carbonyl]-3-phenyl-1H-indol-2-yl}pyridin-2(1H)-one]",80 to 100%,< 50%,80 to 100%,50 to 79%,,,,,,
"O=C(NCCOc1ccccc1)c1ccc2[nH]c(-c3ccc[nH]c3=O)c(-c3ccccc3)c2c1 [Compound 31, 2-(2-oxo-1,2-dihydropyridin-3-yl)-N-(2-phenoxyethyl)-3-phenyl-1H-indole-5-carboxamide]",80 to 100%,80 to 100%,80 to 100%,50 to 79%,< 50%,,,,,
"CN1CCC(N2CCN(C(=O)c3ccc4[nH]c(-c5ccc[nH]c5=O)c(-c5ccc(-c6ccccc6)cc5)c4c3)CC2)CC1 [Compound 50, 3-(3-biphenyl-4-yl-5-{[4-(1-methylpiperidin-4-yl)piperazin-1-yl]carbonyl}-1H-indol-2-yl)pyridin-2(1H)-one]",80 to 100%,50 to 79%,80 to 100%,80 to 100%,80 to 100%,,,,,
"3-biphenyl-4-yl-N-(2- chlorophenyl)-2-(2-oxo-1,2- dihydropyridin-3-yl)-1H- indole-5-carboxamide [Compound 35]",,,,,,C (C = <50% inhibition),C (C = <50% inhibition),C (C = <50% inhibition),C (C = <50% inhibition),C (C = <50% inhibition)
"COc1ccc(-c2c(-c3ccc[nH]c3=O)[nH]c3ccc(C(=O)NCCCN4CCOCC4)cc23)cc1 [Compound 80, 3-(4-methoxyphenyl)-N-(3-morpholin-4-ylpropyl)-2-(2-oxo-1,2-dihydropyridin-3-yl)-1H-indole-5-carboxamide]",50 to 79%,80 to 100%,80 to 100%,50 to 79%,50 to 79%,,,,,
"COc1ccc(-c2c(-c3ccc[nH]c3=O)[nH]c3ccc(C(=O)NCCCN4CCOCC4)cc23)c(OC)c1 [Compound 81, 3-(2,4-dimethoxyphenyl)-N-(3-morpholin-4-ylpropyl)-2-(2-oxo-1,2-dihydropyridin-3-yl)-1H-indole-5-carboxamide]",< 50%,80 to 100%,< 50%,< 50%,,,,,,
"CCOC(=O)N1CCN(C(=O)c2ccc3[nH]c(-c4ccc[nH]c4=O)c(-c4ccccc4)c3c2)CC1 [Compound 24, ethyl 4-{[2-(2-oxo-1,2-dihydropyridin-3-yl)-3-phenyl-1H-indol-5-yl]carbonyl}piperazine-1-carboxylate]",50 to 79%,80 to 100%,80 to 100%,50 to 79%,,,,,,
"O=C(c1ccc2[nH]c(-c3ccc[nH]c3=O)c(-c3ccccc3)c2c1)N1CCN(c2ccccc2F)CC1 [Compound 14, 3-(5-{[4-(2-fluorophenyl)piperazin-1-yl]carbonyl) -3-phenyl-1H-indol-2-yl)pyridin-2(1H)-one]",50 to 79%,80 to 100%,80 to 100%,50 to 79%,,,,,,
"CN(C)CCCNC(=O)c1ccc2[nH]c(-c3ccc[nH]c3=O)c(-c3ccc(-c4ccccc4)cc3)c2c1 [Compound 49, 3-biphenyl-4-yl-N-[3-(dimethylamino)propyl]-2-(2-oxo-1,2-dihydropyridin-3-yl)-1H-indole-5-carboxamide]",80 to 100%,,80 to 100%,80 to 100%,80 to 100%,,,,,
"O=C(c1ccc2[nH]c(-c3ccc[nH]c3=O)c(-c3ccccc3)c2c1)N1CCN(c2cnccn2)CC1 [Compound 25, 3-{3-phenyl-5-[(4-pyrazin-2-ylpiperazin-1-yl)carbonyl]-1H-indol-2-yl}pyridin-2(1H)-one]",50 to 79%,80 to 100%,80 to 100%,50 to 79%,,,,,,
